Assay results reported in patent US12319694B2, “Heterocyclic nitrogen-containing purine derivatives, pharmaceutical preparations containing these derivatives and their use in neuroprotection” (UNIVERZITA PALACKEHO, priority 2019, dated 2025).

Experiments:
[1] = tested on: SH-SY5Y human neuroblastoma cell line (differentiated phenotype); assay: Calcein AM viability test on ATRA-differentiated SH-SY5Y cells; type: cell-based; conditions: 24 h, DMSO control = 100%
Protocol: (§1) The SH-SY5Y human neuroblastoma cell line obtained as kind gift from Walter d'Acunto (originally purchased from ATCC—American Type Culture Collection (Manassas, VA, USA) was cultivated in Dulbecco's modified Eagle's Medium and Ham's F12 Nutrient Mixture (DMEM:F-12, 1:1), supplemented with 10% fetal bovine serum (FBS) and 1% penicillin and streptomycin at 37° C. in a humidified atmosphere 5% CO2, 95% air in passage limit up to ATCC+15. The assay was performed in 96-well microplate with 7000 SH-SY5Y cells per well. Next day, SH-SY5Y underwent all-trans retinoic acid (ATRA)-differentiation for 48 h (ATRA 10 μM). After 48 h, old DMEM/F12 media was removed by fresh media containing tested compounds at 0.1, 1 and 10 μM concentrations for 24 h. The tested compounds were dissolved in DMSO were added into the medium. The maximum concentration of DMSO in media was kept below 0.1% (v/v). The cell viability was measured by Calcein AM (1 mg/ml ThermoFisher) viability assay. Solution of Calcein AM in PBS (0.5 uM) was pipetted to cells and incubated for 50 minutes. After that the fluorescence was measured at 488/517 nm (excitation/emission) using microplate reader Infinite M200 (TECAN). Calcein AM assay is based on the dye-intracellular-esterase cleavage of non-fluorescent dye (Calcein AM) by living cells to fluorescent dye (Calcein), while dyeing cells that lose such ability. The values in Table 4 show % of viability, relative to control of all tested compounds. The control (medium with DMSO, <0.1% (v/v)) was postulated as 100% viability (see the first line of the table).

[2] = tested on: SH-SY5Y human neuroblastoma cell line (differentiated phenotype); assay: Viability test, salsolinol-induced model of Parkinson's disease in differentiated SH-SY5Y (Calcein AM); type: cell-based; conditions: 24 h
Protocol: as §1
Similarly, to the previous test the assay was performed in 96-well microplates with 7000 SH-SY5Y cells per well. Day after the seeding of cells, SH-SY5Y underwent all-trans retinoic acid (ATRA)-differentiation for 48 h (ATRA 10 μM). After 48 h, old DMEM/F12 media was removed by fresh media containing 500 μM dopaminergic neurotoxin Salsolinol (SAL) without or with tested compounds at 0.1, 1 and 10 μM concentrations. […] After 24 h the cell viability was measured by Calcein AM viability assay.

[3] = tested on: SH-SY5Y human neuroblastoma cell line; assay: Oxidative stress measurement (dihydroethidium, superoxide) in SH-SY5Y, salsolinol-induced model of PD; type: cell-based; conditions: 6 h
Protocol: The assay was performed in 96-well microplate with 7000 cells/well. Next day, SH-SY5Y underwent differentiation protocol for 48 h see above. Treatment procedure remained the same as in previous section (Cell treatment and viability/cytotoxicity assays). Additionally, oxidative stress (OS) inducers such as 6-hydroxydopamine (6-OHDA) and glutamate (Glu) alone were used as […]. Negative controls determined threshold of excessive OS. […] After 30 minutes, DHE was read at 500 nm/580 nm (excitation/emission). DHE is cell permeable dye which is selective toward superoxide radical detection.

[4] = Radical scavenging activity by ORAC assay; conditions: NAUC relative to trolox; mean ± SD (n = 3)
Protocol: The ability of compounds to scavenge free radicals in vitro was determined by Oxygen Radical Absorbance Capacity (ORAC) method. In brief, fluorescein (100 μL, […]) and 25 μL of tested compound solution were added into each working well in a 96-well microplate preincubated at 37° C. Thereafter, 25 μL of 250 mM 2,2′-azobis(2-amidino-propan)dihydrochloride (AAPH) was quickly added, microplate was shaken for 5 s and the fluorescence (Ex. 485 nm, Em. 510 nm) was read every 3 min over 90 min by using microplate reader Infinite 200 (TECAN, Switzerland). The NAUC value (Net Area Under Curve) was used to express antioxidant activity relative to trolox (hydrophilic equivalent of vitamin E postulated as a standard). Substances with an ORAC value greater than 0 actively trap free radicals.

Nrf2 = assay: Activation of Nrf2-dependent expression, EpRE-LUX reporter cell line; type: cell-based; conditions: 24 h; tested at 100, 10, 1 and 0.1 μM, concentration of the printed value not stated; mean ± SD (n = 3)
Protocol: The ability of compounds to activate Nrf2-dependent expression was determined by EpRE-LUX reporter cell line. In brief, compounds at 100, 10, 1 and 0.1 μM concentrations of the tested compounds were incubated for 24 h with the cells. After cells lysis (10 mM Tris, 2 mM DTT), a buffer containing 0.2 mM luciferin was added to start luminescent reaction. The increase in luminescence was measured with microplate reader Infinite M200 (TECAN). Compounds with Nrf2 value higher than 0 are strong Nrf2 activators and thus will be useful agents for the treatment of neurodegenerative diseases associated with oxidative stress.

[5] = 0.1 μM compound with 500 μM Salsolinol
[6] = 1 μM compound with 500 μM Salsolinol
[7] = 10 μM compound with 500 μM Salsolinol

| SMILES | % of viability, relative to control ([1]; 0.1 μM compound) [%] | % of viability, relative to control ([1]; 1 μM compound) [%] | % of viability, relative to control ([1]; 10 μM compound) [%] | Neuroprotective effect (% of control) [2, 5] | Neuroprotective effect (% of control) [2, 6] | Neuroprotective effect (% of control) [2, 7] | Oxidative stress (% of control) ([3]; 1 μM compound with SAL 500 μM) | Oxidative stress (% of control) ([3]; 10 μM compound with SAL 500 μM) | ORAC (compound/trolox) [4] [compound/trolox] | Nrf2 (relative luminiscence) (Nrf2) |
| --- | --- | --- | --- | --- | --- | --- | --- | --- | --- | --- |
| COc1ccccc1Cn1cnc2c(N3CCCC3)nc(N3CCCC3)nc21 [Compound 35] | 104.22 | 118.77 | 135.02 | 1.19 % of control | 13.01 % of control | 19.11 % of control | 161.97 % of control | 214.57 % of control | 0.033 ± 0.001 | 0.04 ± 0.00 |
| c1ccc(Cn2cnc3c(N4CCC4)nc(N4CCC4)nc32)cc1 [Compound 1] | 104.80 | 114.03 | 145.94 | N/A (N/A = no protection) | 3.03 % of control | 26.08 % of control | 124.48 % of control | 157.22 % of control | 0.052 ± 0.002 | 0.27 ± 0.06 |
| COc1cccc(Cn2cnc3c(N4CCCC4)nc(N4CCCC4)nc32)c1 [Compound 42] | 112.01 | 127.94 | 138.52 | 6.86 % of control | 15.44 % of control | 20.05 % of control | 171.55 % of control | 173.94 % of control | 0.029 ± 0.002 | 0.00 ± 0.00 |
